From patent publication US20220193010A1, “METHODS OF USING DIPIVEFRIN” (INSIGNIS THERAPEUTICS, INC., priority 2017, published 2022)
Where a name gives a salt, the structure may show the parent alone.

Key:
[1] = test system: influenza A/California/04/2009 (H1N1pdm) virus; experiment: Influenza A (H1N1pdm) virus infection in mice, single oral dose; format: in vivo, C57BL/6J mice; conditions: for body weight loss during infection vs placebo: single p.o. dose 8.48 mg/kg 24 hours after infection, 6-day observation, p<0.05 days 5 and 6; for body weight loss during infection vs placebo / influenza virus titers in lung tissues vs placebo: 8.48 mg/kg; for influenza virus titers in lung tissues vs placebo: day 3 or 6 p.i.
[2] = test system: B16-F10 syngeneic melanoma tumors; experiment: Subcutaneous B16-F10 syngeneic melanoma tumor model, oral dipivefrin as single agent; format: in vivo, C57BL/6J mice; conditions: for MST (median survival time): vehicle 17.0
Text: The treatments were started 7 days before tumor inoculation per study design (day −7).
The endpoints of the study included the following: tumor growth inhibition (TGJ); reduction in median tumor volume on a given day; survival of all animals will be followed and Median Survival Time (MST) and increase in life-span (ILS) will be calculated for each group.
The percent tumor growth inhibition (TGJ %) is an indication of antitumor effectiveness, and is expressed as: TGJ (%)=100× (1-TIC), in which T and C are the mean tumor volume of the treated and control groups, respectively, on a given day.
The endpoint for each mouse is either a tumor volume >3000 mm^3 or the animal is in extreme discomfort (such as pain, seizure, difficulty breathing, etc.). The increase in life-span (ILS) is calculated as follows: ILS (%)=100× [(Median Survival Time of drug treated group/Median Survival Time of vehicle group)−1] (%)
Female C57BL/6J mice (Shanghai Lingchang Bio-Technology Co. Ltd (LC, Shanghai, China; Animal Certificate No.: 2013001825675) were used in the study. At inoculation, mice were 7-8 weeks old with a body weight of 16.2-18.6 g. The mice were kept in an Individually Ventilated Cage (IVC) system at constant temperature (22˜24° C.) and humidity (60-70%) with 5 animals in each cage. Animals had free access during the entire study period to a standard mouse diet (a Co^60 irradiation-sterilized dry granule food) and water.
The test articles used in the study were dipivefrin hydrochloride (1.9 mg/ml freebase, pre-formulated dosing solution) or the vehicle (purified water containing 0.005% wt of benzalkonium chloride as preservative). Each was stored at 4° C. The B16-F10 tumor cells were maintained in vitro as a monolayer culture in DMEM medium supplemented with 10% fetal bovine serum at 37° C. in an atmosphere of 5% CO2 in air. The tumor cells were routinely subcultured twice per week. The cells growing in an exponential growth phase were harvested and counted for tumor inoculation.
Each mouse was inoculated subcutaneously at the right flank region with 2×10^5 B16F10 tumor cells in 0.1 ml of PBS for tumor development. The treatments were started 7 days prior to the inoculation. The test article was administered to the tumor-bearing mice according to the predetermined regimen as shown in the Study Design Table 3. The date of tumor cell inoculation was denoted as day 0.
First grouping: On day 7, all 30 animals were weighed and the body weight was used as numeric parameter to randomize selected animals into two groups in an effort to minimize systematic error.
Second grouping: On day 8, all 20 animals in group-1 were randomized into two groups (1a and 1b) based on tumor volume. Dose administrations were performed as shown Table 5.
After tumor cell inoculation, animals were checked daily for morbidity and mortality. At the time of routine monitoring, the animals were checked for any effects of tumor growth and treatments on normal behavior such as mobility, food and water consumption, body weight gain/loss (body weights were measured twice or thrice per week), eye/hair matting and any other abnormal effect. Death and observed clinical signs were recorded on the basis of the numbers of animals within each subset.
Tumor volumes were measured twice or thrice per week in two dimensions using a caliper, with the volume in mm^3 estimated using the formula: V=0.5 a×b^2 where a and b are the long and short perpendicular diameters of the tumor, respectively. The procedures of dosing as well as tumor and body weight measurement were conducted in a Laminar Flow Cabinet.
On day 17, mice which tumor volumes exceeded 3000 mm^3 were euthanized and the whole study was terminated on day 19. Additionally, mouse #15 in group 1-b was dead on day 13 due to an operation error, while mouse #7 in group 1-a was found dead on day 18 due to tumor ulceration. […]

[3] = for clinical observations after IM injection: dose equivalent to 0.3 mg epinephrine, 3 mice per group
[4] = test system: methicillin-resistant Staphylococcus aureus (MRSA) NRS71-Sanger 252; experiment: Peritonitis-sepsis model of MRSA infection; format: in vivo, C57BL/6J mice
Method: Two (2) groups of C57BL/6J 6 to 8 week old female mice (ca 20 g body weight) with 10 mice/group were injected IP with 2×10^8 CFU/mL of methicillin-resistant Staphylococcus aureus (MRSA) NRS71-Sanger 252 in a volume of 200 μL. The treatment group was dosed with dipivefrin 15.3 mg/kg (freebase) by oral gavage starting at t=−5 days relative to bacterial inoculation. Dosing occurred once daily up to 7 days post bacterial inoculation. Body weights were measured once per day on days 0 to 7 and the experimental endpoint was survival at 7 days. Animals falling below 20% of original weight post-infection was euthanized. Four hours (4 hours) post infection, blood was drawn from 4 animals in each group and bacterial load was determined through a standard plating assay. Each blood sample was diluted by serial log dilutions and 10 dilutions (100 to 10-s) was plated in duplicate on TSA with 5% sheep's blood. The plates were incubated for 24 hours at 37° C. at which time formed colonies was enumerated and CFU/mL was determined. One mouse in the vehicle group was found dead the next day following infection and no subsequent death occurred up to 7 days post infection. No mouse died in the treatment group up to 7 days post infection.

[5] = Pharmacokinetic profile after single oral administration in mice (plasma epinephrine by LC/MS/MS); format: in vivo, C57BL6 mice; conditions: oral (also IM and IP) administration
Method: Male C57BL6 mice, approximately 14 weeks of age and weighing between 28 and 31 g, were placed in an anesthesia chamber and transiently anesthetized with isoflurane (Henry Schein). After approximately 5 minutes and in the absence of reflex (toe pinch), mice were bled via retro-orbital sinus at t=0 (pre-dose). […] Following oral administration, mice were then retro-orbital bled under anesthesia at the following time points post-dose: 15, 30, 1 h, 2 h, 4 h, and 6 h. About 45 μl of the diluted plasma was recovered and plated. The plasma samples were analyzed for epinephrine using a validated LC/MS/MS method (Keystone Bioanalytics, North Wales Pa.).

[6] = beagle dogs N=3, IM 0.3 mg, mean ± SEM
Method: Four days prior to study initiation, 1 mL of whole blood was collected from four (n=4) non-naive male Beagle dogs, aged 1.5-6.5 years and ranging from 9.8 to 10.8 kilograms in weight, into 4 chilled tubes containing K2EDTA. The blood was processed to plasma and plasma cholinesterase activity was assayed according to the Ellman method using acetylthiocholine iodide as the substrate (Ellman, G. L. et al Biochemical Pharmacology, 1961, volume 7, page 88-95). Based on the plasma cholinesterase activity assay results, the first three dogs with highest plasma cholinesterase activity were selected for the PK study.
The dogs were housed one per cage and identified by ear tags and cage labels. The animals were healthy at the start of the study. Primary enclosures were as specified in the USDA Animal Welfare Act (9 CFR, Parts 1, 2, and 3) and as described in the Guide for Care and Use of Laboratory Animals (ILAR publication, 2011, National Academy Press). Animals were fasted for a minimum of 12 hours prior to dosing and returned 4 hours post dose; Water was supplied ad libitum to the animals.
Dosing occurred at 0 hours on the appropriate day in accordance with the Study Design table (Table 11). […] The intramuscular dose was administered via 25 gauge needle and syringe into the lateral aspect of the left or right thigh. […]

in vivo = format: in vivo, New Zealand White Rabbits
[7] = human, in vivo, im; cited from earlier work

Q: With `CNCC(O)c1ccc(OC(=O)C(C)(C)C)c(OC(=O)C(C)(C)C)c1` (stereo not drawn) [Dipivefrin HCl, Dipivefrin hydrochloride] as the molecule, how does the “body weight loss during infection vs placebo” value ([1]; hydrochloride) read?
A: less weight loss compared to placebos

Q: What about the “influenza virus titers in lung tissues vs placebo” value ([1]; single p.o. dose 8.48 mg/kg, hydrochloride) of the same molecule?
A: slightly lower in treated mice compared to placebos, the difference was not statistically significant

Q: What about the drug related deaths ([2]; 15.3 mg/kg (freebase) p.o. daily, study period) of the same molecule?
A: no drug related deaths were observed

Q: And the “effect on body weight” value ([2]; 15.3 mg/kg (freebase) p.o. daily, tumor-bearing mice)?
A: no effect on body weight

Q: What about the mean tumor volume ([2]; 5 days post B16F10 inoculation, 15.3 mg/kg p.o. QD from day -7, vehicle 16.4±2.5, p<0.01) of the same molecule?
A: 6.2±1.1 mm^3

Q: And the “absorption and conversion into epinephrine” value ([3]; mice, IM 0.636 mg)?
A: absorbed rapidly upon IM injection and quickly converted into epinephrine

Q: What about the “clinical observations after IM injection” value ([3]; mice) of the same molecule?
A: appeared to be normal throughout the study and showed no signs of distress or illness

Q: What does the source list for `CNC[C@H](O)c1ccc(O)c(O)c1` [epinephrine bitartrate]?
A: mice found dead ([3]; IM epinephrine bitartrate 0.546 mg (0.3 mg freebase), approximately 20 minutes post administration): Two out of three; clinical observations after IM injection ([3]; mice): cold and lethargic approximately 5 minutes after IM injection

Q: With `CNCC(O)c1ccc(OC(=O)C(C)(C)C)c(OC(=O)C(C)(C)C)c1` (stereo not drawn) [dipivefrin, 4-(1-hydroxy-2-(methylamino)ethyl)-1,2-phenylene bis(2,2-dimethylpropanoate)] as the molecule, how does the “survival at 7 days post infection” value ([4]; 15.3 mg/kg (freebase) oral gavage once daily from day -5 to day 7, 10 mice) read?
A: No mouse died

Q: What about the blood bacterial counts ([4]; 4 hours post infection, 4 animals per group, p<0.05) of the same molecule?
A: significantly higher for the vehicle treated group than the drug treated group

Q: What about the “body weight loss during infection vs placebo” value [1] of the same molecule?
A: losing less weight

Q: What about the “influenza virus titers in lung tissues vs placebo” value ([1]; single p.o. dose 8.48 mg/kg) of the same molecule?
A: did not differ significantly

Q: And the “visual lung hemorrhage score (scale 0 to 4)” value ([1]; single p.o. dose 8.48 mg/kg, lungs day 3 and day 6 p.i.)?
A: 0-3

Q: And the “lung virus titers day 6 p.i. vs day 3 p.i.” value ([1]; single p.o. dose 8.48 mg/kg, p<0.05)?
A: lower virus titers in lung tissues on day 6 p.i. than on day 3 p.i

Q: And the median tumor volume ([2]; 14 days post B16F10 inoculation, 15.3 mg/kg p.o. QD, vehicle 1060, p<0.05)?
A: 827 mm^3

Q: What about the “ILS (increase in life-span)” value ([2]; Group-1b vs vehicle group 1a, p=0.038) of the same molecule?
A: 12%

Q: And the “MST (median survival time)” value ([2]; Group-1b, 15.3 mg/kg p.o. from day 8)?
A: 19.0 days

Q: And the “MST (median survival time)” value ([2]; Group-2, 15.3 mg/kg p.o. from day -7)?
A: 18.0 days

Q: What about the “ILS (increase in life-span)” value ([2]; Group-2 vs vehicle, p=0.175) of the same molecule?
A: 6%

Q: And the mean tumor volume ([2]; day 19, group 1b, 15.3 mg/kg p.o. QD from day 8 (established tumor), vehicle 3668.0±311.9)?
A: 2997.2±341.6 mm^3

Q: And the “reduction in mean tumor volume compared to vehicle” value ([2]; day 19, group 1b, dosing from day 8)?
A: about 18%

Q: And the “absorption and biotransformation into epinephrine” value [5]?
A: absorbed and biotransformed into epinephrine rapidly

Q: Which “AUClast (plasma epinephrine)” value [6] does the source give for `CNC[C@H](O)c1ccc(O)c(O)c1` [Epinephrine] here?
A: 147.37 ± 39.41 ng·min/mL

Q: What about the AUC(0-t) (in vivo; female, New Zealand White, rabbit, in vivo, im, 0.3 mg) of the same molecule?
A: 19.6 ng·h/mL

Q: And the “Cmax (plasma epinephrine)” value (in vivo; rabbits, IM 0.3 mg, mean±SEM)?
A: 50.23 ± 14.95 ng/mL

Q: What about the Tmax [7] of the same molecule?
A: 1.12 ± 0.717 h
